Earlier results, collected in patent publication US20100098759A1, “CONTROLLED-RELEASE PREPARATION CONTAINING CILOSTAZOL AND PROCESS FOR THE PREPARATION THEREOF” (AMOREPACIFIC CORPORATION;, priority 2007, published 2010).

water-solubility: ≤ 1 µg/mL
SMILES: O=C1CCc2cc(OCCCCc3nnnn3C3CCCCC3)ccc2N1 [Cilostazol]
